Reference: US10273233B2, “Inhibitors of influenza viruses replication” (Vertex Pharmaceuticals Incorporated, priority 2015, dated 2019)
Like-named read-outs stand apart in the source and are kept apart here.

Experiments:
B/Lee/40 = test: 3-day CP assay in MDCK cells; type: cell-based; conditions: Influenza B virus
A/Nebraska/1/2006 = test: 3-day CP assay in MDCK cells; type: cell-based; conditions: Influenza A virus
A/Swine/Iowa/15/30 = test: microbe, parasite or virus in culture; type: cell-based, influenza A; conditions: Influenza A virus, MDCK, in Sus scrofa
B/Memphis/20/1996--071 = test: 3-day CP assay in MDCK cells; type: cell-based; conditions: Influenza B virus
A/Missouri/3/2006 = test: 3-day CP assay in MDCK cells; type: cell-based; conditions: Influenza A virus
A/Henan/Jinshui/147/2007 = test: 3-day CP assay in MDCK cells; type: cell-based; conditions: Influenza A virus
A/Mexico/4108/2009 = test: 3-day CP assay in MDCK cells; type: cell-based; conditions: Influenza A virus
A/Fukushima/141/2006 = test: 3-day CP assay in MDCK cells; type: cell-based; conditions: Influenza A virus
A/Hawaii/2/2006 = test: 3-day CP assay in MDCK cells; type: cell-based; conditions: Influenza A virus
B/Russia/69 = test: 3-day CP assay in MDCK cells; type: cell-based; conditions: Influenza B virus
A/Virginia/ATCC2/2009 = test: 3-day CP assay in MDCK cells; type: cell-based; conditions: Influenza A virus
A/Cambodia0371/2007 = test: 3-day CP assay in MDCK cells; type: cell-based; conditions: Influenza A virus
A/Mal/302/54 = test: 3-day CP assay in MDCK cells; type: cell-based; conditions: Influenza A virus
A/Equine/Miami/63 = test: microbe, parasite or virus in culture; type: cell-based; conditions: Influenza A virus, MDCK
B/Memphis/20/1996--070 = test: 3-day CP assay in MDCK cells; type: cell-based; conditions: Influenza B virus
A/Georgia/20/2006 = test: 3-day CP assay in MDCK cells; type: cell-based, influenza A; conditions: Influenza A virus, MDCK
A/Denver/1/57 = test: 3-day CP assay in MDCK cells; type: cell-based; conditions: Influenza A virus
A/WS/33 = test: 3-day CP assay in MDCK cells; type: cell-based; conditions: Influenza A virus
A/South Dakota/6/2007 = test: 3-day CP assay in MDCK cells; type: cell-based; conditions: Influenza A virus
A/Uruguay/716/2007 = test: 3-day CP assay in MDCK cells; type: cell-based; conditions: Influenza A virus
A/California/07/2009 = test: 3-day CP assay in MDCK cells; type: cell-based; conditions: Influenza A virus, MDCK; A/California/07/2009
B/Mass/3/66 = test: 3-day CP assay in MDCK cells; type: cell-based; conditions: Influenza B virus
A/Aichi/2/68 = test: 3-day CP assay in MDCK cells; type: cell-based; conditions: Influenza A virus
A/Virginia/01/2006 = test: 3-day CP assay in MDCK cells; type: cell-based; conditions: Influenza A virus
A/Santiago/7981/2006 = test: 3-day CP assay in MDCK cells; type: cell-based; conditions: Influenza A virus
A/Hong Kong/8/68 = test: 3-day CP assay in MDCK cells; type: cell-based; conditions: Influenza A virus
A/Port Chalmers/1/73 = test: 3-day CP assay in MDCK cells; type: cell-based; conditions: Influenza A virus
A/Wisconsin/67/2005 = test: 3-day CP assay in MDCK cells; type: cell-based; conditions: Influenza A virus
A/Weiss/43 = test: 3-day CP assay in MDCK cells; type: cell-based; conditions: Influenza A virus
A/New Jersey/8/76 = test: microbe, parasite or virus in culture; type: cell-based; conditions: Influenza A virus, MDCK
A/Victoria/3/75 = test: 3-day CP assay in MDCK cells; type: cell-based; conditions: Influenza A virus
A/Virginia/ATCC3/2009 = test: 3-day CP assay in MDCK cells; type: cell-based; conditions: Influenza A virus
A/St. Petersburg8/2006 = test: 3-day CP assay in MDCK cells; type: cell-based; conditions: Influenza A virus
A/Texas/12/2007 = test: 3-day CP assay in MDCK cells; type: cell-based; conditions: Influenza A virus
A/NWS/33 = test: 3-day CP assay in MDCK cells; type: cell-based, influenza A; conditions: Influenza A virus, MDCK
A/Texas/48/2009 = test: 3-day CP assay in MDCK cells; type: cell-based; conditions: Influenza A virus
A/Georgia/17/2006 = test: 3-day CP assay in MDCK cells; type: cell-based; conditions: Influenza A virus
A/Chelyabinsk/1/200 = test: 3-day CP assay in MDCK cells; type: cell-based; conditions: Influenza A virus
A/Puerto Rico/8/34 = test: 3-day CP assay in MDCK cells; type: cell-based; conditions: Influenza A virus
A/FM/1/47 = test: 3-day CP assay in MDCK cells; type: cell-based; conditions: Influenza A virus
A/New York/18/2009 = test: 3-day CP assay in MDCK cells; type: cell-based; conditions: Influenza A virus
[1] = tested on: A/California/07/2009 NYMC, X-179A; test: 3-day CP assay in MDCK cells; type: cell-based; conditions: Influenza A virus
A/Swine/1976/31 = test: microbe, parasite or virus in culture; type: cell-based; conditions: Influenza A virus, MDCK, in Sus scrofa
[2] = monkey, in vivo
[3] = rat, in vivo
[4] = Two week solubility study (final form); conditions: Nitromethane
[5] = 6-month solid-state (open dish) stability; type: physicochemical; conditions: 6 months open dish; 40° C./75% RH, 5° C./60% RH, 25° C./60% RH, 40° C./dry
Description: A 6-month solid-state (open dish) stability study was performed for Hydrate 3 of Compound (1). Hydrate 3 of Compound (1) was stored for 6 months under the following conditions: 40° C./75% RH, 5° C./60% RH, 25° C./60% RH, and 40° C./dry.

[6] = Toxicology formulation stability in 0.5% MC; type: physicochemical; conditions: 0.5% MC in water suspension at 1, 60 and 100 mg/mL; ambient and 5° C.; two weeks
Description: Hydrate 3 of Compound (1) was evaluated for chemical stability and homogeneity in 0.5% MC in water (suspension) at 1, 60 mg/mL and 100 mg/mL under ambient and refrigerated conditions (5° C.) for two weeks.

[7] = Intrinsic dissolution rate determination

## NC(=O)c1nc(F)c[nH]c1=O [Compound T-705, favipiravir]
B/Lee/40
  EC50: 6.5 µM
A/Nebraska/1/2006
  EC50: 6.4 µM
A/Swine/Iowa/15/30
  EC50: > 10 µM
B/Memphis/20/1996--071
  EC50: > 10 µM
A/Missouri/3/2006
  EC50: 5.3 µM
A/Henan/Jinshui/147/2007
  EC50: 6.1 µM
A/Mexico/4108/2009
  EC50: > 10 µM
A/Fukushima/141/2006
  EC50: 1.9 µM
A/Hawaii/2/2006
  EC50: 5.5 µM
B/Russia/69
  EC50: 0.29 µM
A/Virginia/ATCC2/2009
  EC50: 5.3 µM
A/Cambodia0371/2007
  EC50: 6.5 µM
A/Mal/302/54
  EC50: 3.4 µM
A/Equine/Miami/63
  EC50: > 10 µM
B/Memphis/20/1996--070
  EC50: 2.4 µM
A/Georgia/20/2006
  EC50: 6.3 µM
A/Denver/1/57
  EC50: 1.1 µM
A/WS/33
  EC50: > 10 µM
A/South Dakota/6/2007
  EC50: 7.1 µM
A/Uruguay/716/2007
  EC50: 4.5 µM
A/California/07/2009
  EC50: 2 µM
B/Mass/3/66
  EC50: 3.4 µM
A/Aichi/2/68
  EC50: > 10 µM
A/Virginia/01/2006
  EC50: 3.1 µM
A/Santiago/7981/2006
  EC50: 0.86 µM
A/Hong Kong/8/68
  EC50: 4.5 µM
A/Port Chalmers/1/73
  EC50: 1.9 µM
A/Wisconsin/67/2005
  EC50: > 10 µM
A/Weiss/43
  EC50: 1.5 µM
A/New Jersey/8/76
  EC50: 2.1 µM
A/Victoria/3/75
  EC50: > 10 µM
A/Virginia/ATCC3/2009
  EC50: 7.7 µM
A/St. Petersburg8/2006
  EC50: > 10 µM
A/Texas/12/2007
  EC50: 7.1 µM
A/NWS/33
  EC50: 7.6 µM
A/Texas/48/2009
  EC50: 9.3 µM
A/Georgia/17/2006
  EC50: 9.6 µM
A/Chelyabinsk/1/200
  EC50: 6.5 µM
A/Puerto Rico/8/34
  EC50: > 10 µM
A/FM/1/47
  EC50: 4.5 µM
A/New York/18/2009
  EC50: 1.3 µM
[1]
  EC50: > 10 µM
A/Swine/1976/31
  EC50: > 10 µM

## CC(=O)N[C@H]1[C@H]([C@H](O)[C@H](O)CO)OC(C(=O)O)=C[C@@H]1N=C(N)N [Zanamivir]
B/Lee/40
  EC50: > 10 µM
A/Nebraska/1/2006
  EC50: > 10 µM
A/Swine/Iowa/15/30
  EC50: 1.8 µM
B/Memphis/20/1996--071
  EC50: 6 µM
A/Missouri/3/2006
  EC50: 3.6 µM
A/Henan/Jinshui/147/2007
  EC50: > 10 µM
A/Mexico/4108/2009
  EC50: 3.8 µM
A/Fukushima/141/2006
  EC50: 0.27 µM
A/Hawaii/2/2006
  EC50: > 10 µM
B/Russia/69
  EC50: 3.1 µM
A/Virginia/ATCC2/2009
  EC50: > 10 µM
A/Cambodia0371/2007
  EC50: 2.1 µM
A/Mal/302/54
  EC50: 0.28 µM
A/Equine/Miami/63
  EC50: 0.93 µM
B/Memphis/20/1996--070
  EC50: 2.6 µM
A/Georgia/20/2006
  EC50: 4.3 µM
A/Denver/1/57
  EC50: > 10 µM
A/WS/33
  EC50: > 10 µM
A/South Dakota/6/2007
  EC50: 3.4 µM
A/Uruguay/716/2007
  EC50: 4.7 µM
A/California/07/2009
  EC50: > 10 µM
A/Aichi/2/68
  EC50: > 10 µM
A/Virginia/01/2006
  EC50: 0.83 µM
A/Santiago/7981/2006
  EC50: 4 µM
A/Hong Kong/8/68
  EC50: 0.15 µM
A/Port Chalmers/1/73
  EC50: 0.67 µM
A/Wisconsin/67/2005
  EC50: 0.16 µM
A/Weiss/43
  EC50: 0.08 µM
A/New Jersey/8/76
  EC50: 6.2 µM
A/Victoria/3/75
  EC50: 4.1 µM
A/Virginia/ATCC3/2009
  EC50: > 10 µM
A/St. Petersburg8/2006
  EC50: 6 µM
A/Texas/12/2007
  EC50: 8.2 µM
A/NWS/33
  EC50: > 10 µM
A/Texas/48/2009
  EC50: 1.7 µM
A/Georgia/17/2006
  EC50: > 10 µM
A/Chelyabinsk/1/200
  EC50: 7.6 µM
A/Puerto Rico/8/34
  EC50: > 10 µM
A/FM/1/47
  EC50: 2.6 µM
A/New York/18/2009
  EC50: 0.31 µM
[1]
  EC50: 5.6 µM
A/Swine/1976/31
  EC50: 0.25 µM

## CC(C)(C)[C@@H](CC(=O)O)Nc1nc(-c2c[nH]c3ncc(F)cc23)ncc1F [Hydrate 3 of Compound (1)]
[2]
  dose up to which exposures increase proportionally: up to 250 mg/kg
[3]
  dose up to which exposures increase proportionally: up to 500 mg/kg
[4]
  Final Form (After two Weeks): Solvate
Processing properties
  bulk density: 0.172 g/cc
  tap density: 0.383 g/cc
Processing properties; Ring Shear Testing (RST), good flow is 4-10
  average flow factor (FFc): 6.8
Processing properties; at 180 MPa compression pressure
  tensile strength: 2 MPa
[5]
  chemical changes on storage: no significant chemical changes
  crystallinity on storage by XRPD: remained crystalline
[6]
  changes in purity (% Area) by HPLC: no changes were observed
[7]; FaSSGF
  intrinsic dissolution rate (IDR): 0.020 mg/min/cm^2
[7]; FaSSIF
  intrinsic dissolution rate (IDR): 0.012 mg/min/cm^2
